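Method: 48-hour compound exposure of cells in 96-well plates, five concentrations, linear interpolation of endpoints. At the TGI there is no net growth.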
Columns and labels:
Experiment in all cases: growth of human tumour cells (NCI), 48 h
[1] = system: 786-0 renal
[2] = system: A498 renal
[3] = system: A549 NSCLC
[4] = system: ACHN renal
[5] = system: CAKI-1 renal
[6] = system: CCRF-CEM leukemia
[7] = system: COLO 205 colon
[8] = system: DLD-1 colon
[9] = system: DMS 114 small cell lung
[10] = system: EKVX NSCLC
[11] = system: HCC-2998 colon
[12] = system: HCT-116 colon
[13] = system: HCT-15 colon
[14] = system: HL-60(TB) leukemia
[15] = system: HOP-18 NSCLC
[16] = system: HOP-62 NSCLC
[17] = system: HOP-92 NSCLC
[18] = system: HT29 colon
[19] = system: IGROV1 ovarian
[20] = system: K-562 leukemia
[21] = system: KM12 colon
[22] = system: KM20L2 colon
[23] = system: LOX IMVI melanoma
[24] = system: LXFL 529 NSCLC
[25] = system: M14 melanoma
[26] = system: M19-MEL melanoma
[27] = system: MALME-3M melanoma
[28] = system: NCI-H226 lung
[29] = system: NCI-H23 lung
[30] = system: NCI-H460 lung
[31] = system: NCI-H522 lung
[32] = system: OVCAR-3 ovarian
[33] = system: OVCAR-4 ovarian
[34] = system: OVCAR-5 ovarian
[35] = system: OVCAR-8 ovarian
[36] = system: RPMI-8226 leukemia
[37] = system: RXF 393 renal
[38] = system: SF-268 CNS
[39] = system: SF-295 CNS
[40] = system: SF-539 CNS
[41] = system: SK-MEL-28 melanoma
[42] = system: SK-MEL-5 melanoma
[43] = system: SK-OV-3 ovarian
[44] = system: SN12C renal
[45] = system: SNB-19 CNS
[46] = system: SNB-75 CNS
[47] = system: SR leukemia
[48] = system: SW-620 colon
[49] = system: TK-10 renal
[50] = system: U251 CNS
[51] = system: UACC-257 melanoma
[52] = system: UACC-62 melanoma
[53] = system: UO-31 renal
[54] = system: XF 498 CNS
[55] = system: DMS 273 small cell lung
[56] = system: MOLT-4 leukemia
[57] = system: SK-MEL-2 melanoma
[58] = system: SNB-78 CNS

Compound CCc1cccc(C(C)C)c1NC(=O)C(=O)C1C(=O)NC(=O)NC1=O has a TGI [1] of over 100 µM, a TGI [2] of over 100 µM and a TGI [3] of over 100 µM. It also gave a TGI [4] of over 100 µM, a TGI [5] of over 100 µM and a TGI [6] of over 100 µM. The TGI [7] was over 100 µM, the TGI [8] was over 100 µM and the TGI [9] was over 100 µM. The TGI [10] was over 100 µM, the TGI [11] was over 100 µM and the TGI [12] was over 100 µM. For the same compound, the TGI [13] was over 100 µM, the TGI [14] was over 100 µM and the TGI [15] was over 100 µM. For the same compound, the TGI [16] was over 100 µM, the TGI [17] was over 100 µM and the TGI [18] was over 100 µM. For the same compound, the TGI [19] was over 100 µM, the TGI [20] was over 100 µM and the TGI [21] was over 100 µM. The TGI [22] was over 100 µM, the TGI [23] was over 100 µM and the TGI [24] was over 100 µM. The TGI [25] was over 100 µM, the TGI [26] was over 100 µM and the TGI [27] was over 100 µM. For the same compound, the TGI [28] was over 100 µM, the TGI [29] was over 100 µM and the TGI [30] was over 100 µM. For the same compound, the TGI [31] was over 100 µM, the TGI [32] was over 100 µM and the TGI [33] was over 100 µM. The TGI [34] was over 100 µM, the TGI [35] was over 100 µM and the TGI [36] was over 100 µM. The TGI [37] was over 100 µM, the TGI [38] was over 100 µM and the TGI [39] was over 100 µM. For the same compound, the TGI [40] was over 100 µM, the TGI [41] was over 100 µM and the TGI [42] was over 100 µM. For the same compound, the TGI [43] was over 100 µM, the TGI [44] was over 100 µM and the TGI [45] was over 100 µM. For the same compound, the TGI [46] was over 100 µM, the TGI [47] was over 100 µM and the TGI [48] was over 100 µM. The TGI [49] was over 100 µM, the TGI [50] was over 100 µM and the TGI [51] was over 100 µM. The TGI [52] was over 100 µM, the TGI [53] was over 100 µM and the TGI [54] was over 100 µM.

CC1CC2=C(C(=O)O1)C(c1ccccc1)Nc1ccccc1N2 (centres undefined) gave a TGI [1] of over 100 µM, a TGI [2] of over 100 µM and a TGI [3] of over 100 µM. It also gave a TGI [4] of over 100 µM, a TGI [6] of over 100 µM and a TGI [7] of over 100 µM. The TGI [8] was over 100 µM, the TGI [9] was over 100 µM and the TGI [55] was over 100 µM. For the same compound, the TGI [10] was over 100 µM, the TGI [11] was over 100 µM and the TGI [12] was over 100 µM. The TGI [13] was over 100 µM, the TGI [14] was over 100 µM and the TGI [15] was over 100 µM. The TGI [16] was over 100 µM, the TGI [18] was over 100 µM and the TGI [19] was over 100 µM. The TGI [20] was over 100 µM, the TGI [21] was over 100 µM and the TGI [22] was over 100 µM. The TGI [23] was over 100 µM, the TGI [24] was over 100 µM and the TGI [25] was over 100 µM. The TGI [26] was over 100 µM, the TGI [27] was over 100 µM and the TGI [56] was over 100 µM. For the same compound, the TGI [28] was over 100 µM, the TGI [29] was over 100 µM and the TGI [30] was over 100 µM. It also gave a TGI [31] of over 100 µM, a TGI [32] of over 100 µM and a TGI [34] of over 100 µM. The TGI [35] was over 100 µM, the TGI [37] was over 100 µM and the TGI [38] was over 100 µM. The TGI [40] was over 100 µM, the TGI [57] was over 100 µM and the TGI [41] was over 100 µM. It also gave a TGI [42] of over 100 µM, a TGI [43] of over 100 µM and a TGI [44] of over 100 µM. For the same compound, the TGI [45] was over 100 µM, the TGI [46] was over 100 µM and the TGI [58] was over 100 µM. The TGI [47] was over 100 µM, the TGI [48] was over 100 µM and the TGI [49] was over 100 µM. For the same compound, the TGI [50] was over 100 µM, the TGI [51] was over 100 µM and the TGI [52] was over 100 µM. The TGI [53] was over 100 µM.

Work on Cc1[nH]c2c(C)cccc2c1C1Cc2ccccc2N1 (centres undefined) yielded a TGI [1] of 46.9 µM, a TGI [2] of 87.7 µM and a TGI [3] of 62.2 µM. It also gave a TGI [4] of 74.9 µM, a TGI [6] of 74.1 µM and a TGI [7] of 32.3 µM. The TGI [8] was 79.8 µM, the TGI [9] was 45.2 µM and the TGI [10] was 35.9 µM. For the same compound, the TGI [12] was 30.9 µM, the TGI [13] was 49.2 µM and the TGI [14] was 43 µM. It also gave a TGI [15] of 35.2 µM, a TGI [16] of 32.3 µM and a TGI [17] of 0.0966 µM. The TGI [18] was 35.3 µM, the TGI [19] was 36.7 µM and the TGI [20] was 67 µM. For the same compound, the TGI [21] was 32.4 µM, the TGI [22] was 31.4 µM and the TGI [23] was 31 µM. It also gave a TGI [24] of 36.4 µM, a TGI [25] of 29.6 µM and a TGI [26] of 46.1 µM. The TGI [27] was 41.7 µM, the TGI [56] was 48.3 µM and the TGI [28] was 57.1 µM. For the same compound, the TGI [29] was 39.8 µM, the TGI [30] was 51.7 µM and the TGI [31] was 41.2 µM. It also gave a TGI [32] of 33 µM, a TGI [34] of 41.3 µM and a TGI [35] of 40.2 µM. For the same compound, the TGI [36] was 74.6 µM, the TGI [37] was 23.1 µM and the TGI [38] was 48.2 µM. For the same compound, the TGI [39] was 41 µM, the TGI [40] was 33.7 µM and the TGI [57] was 54.3 µM. It also gave a TGI [41] of 36.7 µM, a TGI [42] of 33.4 µM and a TGI [43] of over 100 µM. For the same compound, the TGI [44] was 41 µM, the TGI [45] was 69.8 µM and the TGI [46] was over 100 µM. For the same compound, the TGI [47] was 66.7 µM, the TGI [48] was 56.4 µM and the TGI [49] was 62.2 µM. For the same compound, the TGI [50] was 41.4 µM, the TGI [51] was 42.7 µM and the TGI [52] was 32.8 µM. The TGI [53] was 65.7 µM and the TGI [54] was 38.4 µM.

— PubChem BioAssay (NCI)
